Measured values taken from ChEMBL document CHEMBL1287770, “A protected l-bromophosphonomethylphenylalanine amino acid derivative (BrPmp) for synthesis of irreversible protein tyrosine phosphatase inhibitors” (Bioorg Med Chem, 2010).
The source made the active and inactive calls. The rule behind the calls is not given here.

How the values were obtained:
[1] = target: T1, Receptor-type tyrosine-protein phosphatase C (Homo sapiens, UniProt P08575); test: Inhibition of human CD45-cytoplasmic domain at 1500 uM after 10 mins by Kitz-Wilson analysis
T1 sequence (P08575 whole entry): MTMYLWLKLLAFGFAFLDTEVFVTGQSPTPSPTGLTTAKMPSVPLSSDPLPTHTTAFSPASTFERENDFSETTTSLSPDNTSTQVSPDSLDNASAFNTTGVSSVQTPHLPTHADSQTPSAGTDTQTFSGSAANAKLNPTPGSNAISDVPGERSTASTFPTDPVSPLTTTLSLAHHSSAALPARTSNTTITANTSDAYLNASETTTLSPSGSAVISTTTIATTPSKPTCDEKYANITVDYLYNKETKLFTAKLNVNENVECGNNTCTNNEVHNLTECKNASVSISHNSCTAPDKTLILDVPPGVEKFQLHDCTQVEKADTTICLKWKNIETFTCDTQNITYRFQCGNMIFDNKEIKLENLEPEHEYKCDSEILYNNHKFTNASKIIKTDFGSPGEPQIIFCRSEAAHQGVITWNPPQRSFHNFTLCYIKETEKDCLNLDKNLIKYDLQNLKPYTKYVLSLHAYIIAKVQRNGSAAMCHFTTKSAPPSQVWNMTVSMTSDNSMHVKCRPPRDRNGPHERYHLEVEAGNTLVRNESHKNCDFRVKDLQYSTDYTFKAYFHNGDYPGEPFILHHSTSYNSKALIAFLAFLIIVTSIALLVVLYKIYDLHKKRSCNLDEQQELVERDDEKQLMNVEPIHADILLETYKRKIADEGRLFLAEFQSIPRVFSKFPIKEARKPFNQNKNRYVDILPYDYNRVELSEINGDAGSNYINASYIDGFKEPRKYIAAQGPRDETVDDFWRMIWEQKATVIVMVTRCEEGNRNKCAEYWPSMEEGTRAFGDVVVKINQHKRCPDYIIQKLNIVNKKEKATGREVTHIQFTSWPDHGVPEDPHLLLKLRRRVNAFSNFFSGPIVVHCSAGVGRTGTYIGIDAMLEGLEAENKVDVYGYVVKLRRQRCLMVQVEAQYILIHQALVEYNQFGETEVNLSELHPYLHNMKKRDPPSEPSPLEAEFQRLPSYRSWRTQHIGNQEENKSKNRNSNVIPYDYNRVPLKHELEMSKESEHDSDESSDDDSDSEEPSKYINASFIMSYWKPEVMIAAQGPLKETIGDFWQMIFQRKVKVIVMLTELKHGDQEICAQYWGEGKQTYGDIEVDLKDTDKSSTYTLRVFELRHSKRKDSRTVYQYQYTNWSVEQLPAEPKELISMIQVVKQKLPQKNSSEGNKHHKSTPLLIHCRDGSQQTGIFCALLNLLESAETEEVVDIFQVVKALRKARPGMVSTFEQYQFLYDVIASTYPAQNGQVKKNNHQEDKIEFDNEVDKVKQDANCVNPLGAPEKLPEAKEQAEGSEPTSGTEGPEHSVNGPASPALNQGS

[2] = target: T1, Receptor-type tyrosine-protein phosphatase C; test: Inhibition of human CD45-cytoplasmic domain at 150 uM after 10 mins by Kitz-Wilson analysis
[3] = target: T2, Receptor-type tyrosine-protein phosphatase C (Homo sapiens) (UniProt P08575); test: Competitive inhibition of human CD45-cytoplasmic domain after 10 mins
T2 sequence (whole entry): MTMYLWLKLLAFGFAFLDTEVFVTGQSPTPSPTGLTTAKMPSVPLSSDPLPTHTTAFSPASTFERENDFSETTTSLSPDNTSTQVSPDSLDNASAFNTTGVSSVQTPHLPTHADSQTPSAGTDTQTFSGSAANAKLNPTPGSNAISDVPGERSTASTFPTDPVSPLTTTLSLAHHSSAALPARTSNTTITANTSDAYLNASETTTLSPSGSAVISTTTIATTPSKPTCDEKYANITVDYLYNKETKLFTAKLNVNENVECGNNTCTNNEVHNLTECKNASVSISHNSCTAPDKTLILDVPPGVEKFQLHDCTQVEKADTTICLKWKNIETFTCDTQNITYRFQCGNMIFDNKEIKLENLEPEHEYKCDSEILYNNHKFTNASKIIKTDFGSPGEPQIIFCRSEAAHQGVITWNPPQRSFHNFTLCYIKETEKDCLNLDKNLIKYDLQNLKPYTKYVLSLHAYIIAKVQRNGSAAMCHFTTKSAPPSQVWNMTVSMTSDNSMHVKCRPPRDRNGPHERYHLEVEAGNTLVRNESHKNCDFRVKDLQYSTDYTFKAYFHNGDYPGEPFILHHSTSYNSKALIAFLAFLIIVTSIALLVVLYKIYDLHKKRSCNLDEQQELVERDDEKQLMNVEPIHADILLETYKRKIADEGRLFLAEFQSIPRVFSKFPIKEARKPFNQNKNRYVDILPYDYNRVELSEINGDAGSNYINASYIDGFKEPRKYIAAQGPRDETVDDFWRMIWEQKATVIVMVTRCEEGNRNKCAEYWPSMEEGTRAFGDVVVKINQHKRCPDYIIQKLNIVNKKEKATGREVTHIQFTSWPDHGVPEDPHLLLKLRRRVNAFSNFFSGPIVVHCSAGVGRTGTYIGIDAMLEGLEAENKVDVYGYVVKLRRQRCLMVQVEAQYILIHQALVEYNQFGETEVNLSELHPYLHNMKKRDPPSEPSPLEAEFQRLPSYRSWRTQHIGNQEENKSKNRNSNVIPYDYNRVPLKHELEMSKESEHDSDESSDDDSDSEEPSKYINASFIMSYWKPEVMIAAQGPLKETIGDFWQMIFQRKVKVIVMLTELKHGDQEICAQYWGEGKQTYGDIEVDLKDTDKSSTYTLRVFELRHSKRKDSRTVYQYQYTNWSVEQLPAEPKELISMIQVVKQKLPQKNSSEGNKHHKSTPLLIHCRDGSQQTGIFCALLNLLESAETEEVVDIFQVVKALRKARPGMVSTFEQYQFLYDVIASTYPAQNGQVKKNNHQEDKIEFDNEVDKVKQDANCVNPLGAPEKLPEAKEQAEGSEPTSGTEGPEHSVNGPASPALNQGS

[4] = target: T2, Receptor-type tyrosine-protein phosphatase C (Homo sapiens); test: Competitive inhibition of human CD45-cytoplasmic domain; details: TDE = time-dependent effect
[5] = compound: N[C@@H](Cc1ccc(C(Br)P(=O)(O)O)cc1)C(=O)O; test: Inhibition of human CD45-cytoplasmic domain at 150 uM after 10 mins by Michaelis-Menten equation analysis
[6] = compound: CC(C)C[C@H](NC(=O)[C@H](Cc1ccc(C(Br)P(=O)(O)O)cc1)NC(=O)[C@@H](N)CC(=O)O)C(=O)O; test: Inhibition of human CD45-cytoplasmic domain at 35 uM after 10 mins by Michaelis-Menten equation analysis

O=P(O)(O)C(Br)c1ccccc1 (configuration not stated) [[BROMO(PHENYL)METHYL]PHOSPHONIC ACID]
Ki [1]: Not Active

N[C@@H](Cc1ccc(C(Br)P(=O)(O)O)cc1)C(=O)O (some centres not stated)
Ki [2]: 40 µM | inhibition [3]: inactive | inhibition [4]: tde

CC(C)C[C@H](NC(=O)[C@H](Cc1ccc(C(Br)P(=O)(O)O)cc1)NC(=O)[C@@H](N)CC(=O)O)C(=O)O (some centres not stated)
inhibition [3]: inactive

B1: Receptor-type tyrosine-protein phosphatase C (Homo sapiens), P08575 (protein)
chain: MTMYLWLKLLAFGFAFLDTEVFVTGQSPTPSPTGLTTAKMPSVPLSSDPLPTHTTAFSPASTFERENDFSETTTSLSPDNTSTQVSPDSLDNASAFNTTGVSSVQTPHLPTHADSQTPSAGTDTQTFSGSAANAKLNPTPGSNAISDVPGERSTASTFPTDPVSPLTTTLSLAHHSSAALPARTSNTTITANTSDAYLNASETTTLSPSGSAVISTTTIATTPSKPTCDEKYANITVDYLYNKETKLFTAKLNVNENVECGNNTCTNNEVHNLTECKNASVSISHNSCTAPDKTLILDVPPGVEKFQLHDCTQVEKADTTICLKWKNIETFTCDTQNITYRFQCGNMIFDNKEIKLENLEPEHEYKCDSEILYNNHKFTNASKIIKTDFGSPGEPQIIFCRSEAAHQGVITWNPPQRSFHNFTLCYIKETEKDCLNLDKNLIKYDLQNLKPYTKYVLSLHAYIIAKVQRNGSAAMCHFTTKSAPPSQVWNMTVSMTSDNSMHVKCRPPRDRNGPHERYHLEVEAGNTLVRNESHKNCDFRVKDLQYSTDYTFKAYFHNGDYPGEPFILHHSTSYNSKALIAFLAFLIIVTSIALLVVLYKIYDLHKKRSCNLDEQQELVERDDEKQLMNVEPIHADILLETYKRKIADEGRLFLAEFQSIPRVFSKFPIKEARKPFNQNKNRYVDILPYDYNRVELSEINGDAGSNYINASYIDGFKEPRKYIAAQGPRDETVDDFWRMIWEQKATVIVMVTRCEEGNRNKCAEYWPSMEEGTRAFGDVVVKINQHKRCPDYIIQKLNIVNKKEKATGREVTHIQFTSWPDHGVPEDPHLLLKLRRRVNAFSNFFSGPIVVHCSAGVGRTGTYIGIDAMLEGLEAENKVDVYGYVVKLRRQRCLMVQVEAQYILIHQALVEYNQFGETEVNLSELHPYLHNMKKRDPPSEPSPLEAEFQRLPSYRSWRTQHIGNQEENKSKNRNSNVIPYDYNRVPLKHELEMSKESEHDSDESSDDDSDSEEPSKYINASFIMSYWKPEVMIAAQGPLKETIGDFWQMIFQRKVKVIVMLTELKHGDQEICAQYWGEGKQTYGDIEVDLKDTDKSSTYTLRVFELRHSKRKDSRTVYQYQYTNWSVEQLPAEPKELISMIQVVKQKLPQKNSSEGNKHHKSTPLLIHCRDGSQQTGIFCALLNLLESAETEEVVDIFQVVKALRKARPGMVSTFEQYQFLYDVIASTYPAQNGQVKKNNHQEDKIEFDNEVDKVKQDANCVNPLGAPEKLPEAKEQAEGSEPTSGTEGPEHSVNGPASPALNQGS
Km [5]: 141 µM | Km [6]: 141 µM
